How the values were obtained:
STAT6 protein = molecular target: T1, STAT6 protein (Homo sapiens, UniProt P42226); experiment: Fluorescence polarization (FP) binding assay, STAT6; details: FP competition, 5 nM fluorescein-labeled tracer, 200 nM protein, PBS pH7.4; read-out: Binding STAT6
T1 sequence (P42226 1-847): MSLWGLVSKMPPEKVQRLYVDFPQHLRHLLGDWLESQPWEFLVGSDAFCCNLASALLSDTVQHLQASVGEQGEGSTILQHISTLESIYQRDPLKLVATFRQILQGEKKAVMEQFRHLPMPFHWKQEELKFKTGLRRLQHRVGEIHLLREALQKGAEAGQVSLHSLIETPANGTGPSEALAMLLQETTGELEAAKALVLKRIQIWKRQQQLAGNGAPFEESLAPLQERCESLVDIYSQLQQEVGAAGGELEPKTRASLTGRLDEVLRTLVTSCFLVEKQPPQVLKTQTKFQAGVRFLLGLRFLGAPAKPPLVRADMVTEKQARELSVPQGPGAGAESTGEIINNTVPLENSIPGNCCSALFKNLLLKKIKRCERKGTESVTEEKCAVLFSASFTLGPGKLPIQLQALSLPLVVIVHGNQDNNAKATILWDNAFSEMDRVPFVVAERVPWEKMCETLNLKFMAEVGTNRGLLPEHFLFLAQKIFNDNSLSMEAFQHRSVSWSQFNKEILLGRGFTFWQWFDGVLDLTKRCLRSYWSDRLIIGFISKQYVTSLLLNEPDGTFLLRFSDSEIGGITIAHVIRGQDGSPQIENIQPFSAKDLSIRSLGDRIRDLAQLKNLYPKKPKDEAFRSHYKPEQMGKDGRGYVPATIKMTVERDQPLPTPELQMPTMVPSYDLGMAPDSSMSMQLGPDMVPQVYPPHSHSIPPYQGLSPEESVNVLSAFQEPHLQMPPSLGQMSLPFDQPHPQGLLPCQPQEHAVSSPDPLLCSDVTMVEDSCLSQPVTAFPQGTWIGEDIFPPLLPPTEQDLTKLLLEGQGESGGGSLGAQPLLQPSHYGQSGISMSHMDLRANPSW
How it was run: (§1)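 Each well holds 200 nM STAT5 and/or STAT6 with 5 nM fluorescent tracer in PBS pH 7.4 (0.01% BGG, 0.01% Tween-20, 2 mM DTT). Binding reaches equilibrium over 1 h at room temperature after brief shaking, and polarization data are fitted nonlinearly.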

STAT5A = molecular target: T2, STAT5A (Homo sapiens, UniProt P42229); experiment: Fluorescence polarization (FP) binding assay, STAT5A; details: FP competition, 5 nM fluorescein-labeled tracer, 200 nM protein, PBS pH7.4
T2 sequence (P42229 1-794): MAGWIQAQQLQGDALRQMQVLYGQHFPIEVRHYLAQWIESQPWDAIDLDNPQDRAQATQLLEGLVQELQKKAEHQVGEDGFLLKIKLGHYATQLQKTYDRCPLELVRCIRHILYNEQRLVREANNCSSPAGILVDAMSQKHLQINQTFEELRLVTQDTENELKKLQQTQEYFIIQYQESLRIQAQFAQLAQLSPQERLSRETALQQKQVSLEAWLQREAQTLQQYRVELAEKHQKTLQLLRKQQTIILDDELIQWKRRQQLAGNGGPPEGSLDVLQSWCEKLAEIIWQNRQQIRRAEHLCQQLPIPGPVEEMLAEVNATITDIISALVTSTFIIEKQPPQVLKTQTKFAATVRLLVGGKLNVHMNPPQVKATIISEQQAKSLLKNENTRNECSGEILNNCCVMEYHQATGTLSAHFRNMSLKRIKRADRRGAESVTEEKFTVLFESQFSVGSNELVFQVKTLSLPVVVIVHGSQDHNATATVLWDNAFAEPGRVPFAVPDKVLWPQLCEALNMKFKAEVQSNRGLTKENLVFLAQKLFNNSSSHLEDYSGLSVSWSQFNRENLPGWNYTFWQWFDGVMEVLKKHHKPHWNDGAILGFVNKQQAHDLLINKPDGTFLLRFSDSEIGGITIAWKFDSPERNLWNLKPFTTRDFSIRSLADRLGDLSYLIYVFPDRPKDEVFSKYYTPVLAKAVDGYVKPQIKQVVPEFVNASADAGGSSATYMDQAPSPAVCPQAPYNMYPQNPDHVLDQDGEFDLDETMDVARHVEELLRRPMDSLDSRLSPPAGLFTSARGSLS
How it was run: as §1

Row | Structure (SMILES) | Ki (STAT6 protein) [µM] | Ki (STAT5A) [µM]
1 | CC1(c2ccc(F)cc2)CN(C(=O)[C@@H]2CCCN2C(=O)[C@@H](NC(=O)c2cc3cc(C(F)(F)P(=O)(O)O)ccc3s2)C(C)(C)C)CCO1 (stereo partly drawn) [Compound 100, (difluoro(2-(((2S)-1-((2S)-2-(2-(4-fluorophenyl)-2-methylmorpholine-4-carbonyl)pyrrolidin-1-yl)-3,3-dimethyl-1-oxobutan-2-yl)carbamoyl)benzo[b]thiophen-5-yl)methyl)phosphonic acid] | 1 to 10 | > 10
2 | CC1(c2ccc(Cl)cc2)CN(C(=O)[C@@H]2CCCN2C(=O)[C@@H](NC(=O)c2cc3cc(C(F)(F)P(=O)(O)O)ccc3s2)C(C)(C)C)CCO1 (stereo partly drawn) [Compound 101, ((2-(((2S)-1-((2S)-2-(2-(4-chlorophenyl)-2-methylmorpholine-4-carbonyl)pyrrolidin-1-yl)-3,3-dimethyl-1-oxobutan-2-yl)carbamoyl)benzo[b]thiophen-5-yl)difluoromethyl)phosphonic acid] | 1 to 10 | > 10
3 | CC(C)(C)[C@H](NC(=O)c1cc2cc(C(F)(F)P(=O)(O)O)ccc2s1)C(=O)N1CCC[C@H]1C(=O)N1CCOC(c2ccc(F)cc2)C1 (stereo partly drawn) [Compound 102, (difluoro(2-(((2S)-1-((2S)-2-(2-(4-fluorophenyl)morpholine-4-carbonyl)pyrrolidin-1-yl)-3,3-dimethyl-1-oxobutan-2-yl)carbamoyl)benzo[b]thiophen-5-yl)methyl)phosphonic acid] | 0.1 to 1 | > 10
4 | Cc1ccccc1C1CN(C(=O)[C@@H]2CCCN2C(=O)[C@@H](NC(=O)c2cc3cc(C(F)(F)P(=O)(O)O)ccc3s2)C(C)(C)C)CCO1 (stereo partly drawn) [Compound 106, ((2-(((2S)-3,3-dimethyl-1-oxo-1-((2S)-2-(2-(o-tolyl)morpholine-4-carbonyl)pyrrolidin-1-yl)butan-2-yl)carbamoyl)benzo[b]thiophen-5-yl)difluoromethyl)phosphonic acid] | 0.1 to 1 | 1 to 10
5 | CC(C)(C)[C@H](NC(=O)c1cc2cc(C(F)(F)P(=O)(O)O)ccc2s1)C(=O)N1CCC[C@H]1C(=O)N1CCOC(c2ccc(F)cc2F)C1 (stereo partly drawn) [Compound 110, ((2-(((2S)-1-((2S)-2-(2-(2,4-difluorophenyl)morpholine-4-carbonyl)pyrrolidin-1-yl)-3,3-dimethyl-1-oxobutan-2-yl)carbamoyl)benzo[b]thiophen-5-yl)difluoromethyl)phosphonic acid] | 1 to 10 | > 10
6 | CC(C)(C)[C@H](NC(=O)c1cc2cc(C(F)(F)P(=O)(O)O)ccc2s1)C(=O)N1CCC[C@H]1C(=O)N1CCOC(c2ccc(F)c(F)c2)C1 (stereo partly drawn) [Compound 111, ((2-(((2S)-1-((2S)-2-(2-(3,4-difluorophenyl)morpholine-4-carbonyl)pyrrolidin-1-yl)-3,3-dimethyl-1-oxobutan-2-yl)carbamoyl)benzo[b]thiophen-5-yl)difluoromethyl)phosphonic acid] | 0.1 to 1 | > 10
7 | CC(C)(C)[C@H](NC(=O)c1cc2cc(C(F)(F)P(=O)(O)O)ccc2s1)C(=O)N1CCC[C@H]1C(=O)N1CCOC(c2ccccc2Cl)C1 (stereo partly drawn) [Compound 112, ((2-(((2S)-1-((2S)-2-(2-(2-chlorophenyl)morpholine-4-carbonyl)pyrrolidin-1-yl)-3,3-dimethyl-1-oxobutan-2-yl)carbamoyl)benzo[b]thiophen-5-yl)difluoromethyl)phosphonic acid] | 0.1 to 1 | > 10
8 | CC(C)(C)[C@H](NC(=O)c1cc2cc(C(F)(F)P(=O)(O)O)ccc2s1)C(=O)N1CCC[C@H]1C(=O)N1CCOC(c2ccc(F)c(Cl)c2)C1 (stereo partly drawn) [Compound 113, ((2-(((2S)-1-((2S)-2-(2-(3-chloro-4-fluorophenyl)morpholine-4-carbonyl)pyrrolidin-1-yl)-3,3-dimethyl-1-oxobutan-2-yl)carbamoyl)benzo[b]thiophen-5-yl)difluoromethyl)phosphonic acid] | 0.1 to 1 | 1 to 10

Other lines, results leading:

Row | Ki (STAT6 protein) [µM] | Ki (STAT5A) [µM] | Structure (SMILES)
9 | > 10 | > 10 | CC(C)(C)[C@H](NC(=O)c1cc2cc(C(F)(F)P(=O)(O)O)ccc2s1)C(=O)N1CCC[C@H]1C(=O)N1C[C@@H]2CCN(C(=O)c3ccc(F)cc3)[C@@H]2C1 [Compound 97, (difluoro(2-(((S)-1-((S)-2-((3aS,6aS)-1-(4-fluorobenzoyl)octahydropyrrolo[3,4-b]pyrrole-5-carbonyl)pyrrolidin-1-yl)-3,3-dimethyl-1-oxobutan-2-yl)carbamoyl)benzo[b]thiophen-5-yl)methyl)phosphonic acid]
10 | 1 to 10 | 1 to 10 | CC(C)(C)[C@H](NC(=O)c1cc2cc(C(F)(F)P(=O)(O)O)ccc2s1)C(=O)N1CCC[C@H]1C(=O)N1CCOC(c2cccc(Cl)c2)C1 (stereo partly drawn) [Compound 103, ((2-(((2S)-1-((2S)-2-(2-(3-chlorophenyl)morpholine-4-carbonyl)pyrrolidin-1-yl)-3,3-dimethyl-1-oxobutan-2-yl)carbamoyl)benzo[b]thiophen-5-yl)difluoromethyl)phosphonic acid]
11 | 1 to 10 | 1 to 10 | CC(C)(C)[C@H](NC(=O)c1cc2cc(C(F)(F)P(=O)(O)O)ccc2s1)C(=O)N1CCC[C@H]1C(=O)N1CCOC(c2cc(F)c(Cl)cc2Cl)C1 (stereo partly drawn) [Compound 104, ((2-(((2S)-1-((2S)-2-(2-(2,4-dichloro-5-fluorophenyl)morpholine-4-carbonyl)pyrrolidin-1-yl)-3,3-dimethyl-1-oxobutan-2-yl)carbamoyl)benzo[b]thiophen-5-yl)difluoromethyl)phosphonic acid]
12 | 1 to 10 | > 10 | Cc1ccccc1C1CCCN(C(=O)[C@@H]2CCCN2C(=O)[C@@H](NC(=O)c2cc3cc(C(F)(F)P(=O)(O)O)ccc3s2)C(C)(C)C)C1 (stereo partly drawn) [Compound 105, ((2-(((2S)-3,3-dimethyl-1-oxo-1-((2S)-2-(3-(o-tolyl)piperidine-1-carbonyl)pyrrolidin-1-yl)butan-2-yl)carbamoyl)benzo[b]thiophen-5-yl)difluoromethyl)phosphonic acid]
13 | 1 to 10 | > 10 | Cc1ccc(C2CN(C(=O)[C@@H]3CCCN3C(=O)[C@@H](NC(=O)c3cc4cc(C(F)(F)P(=O)(O)O)ccc4s3)C(C)(C)C)CCO2)c(C)c1 (stereo partly drawn) [Compound 107, ((2-(((2S)-1-((2S)-2-(2-(2,4-dimethylphenyl)morpholine-4-carbonyl)pyrrolidin-1-yl)-3,3-dimethyl-1-oxobutan-2-yl)carbamoyl)benzo[b]thiophen-5-yl)difluoromethyl)phosphonic acid]
14 | 1 to 10 | > 10 | Cc1cc(C2CN(C(=O)[C@@H]3CCCN3C(=O)[C@@H](NC(=O)c3cc4cc(C(F)(F)P(=O)(O)O)ccc4s3)C(C)(C)C)CCO2)ccc1F (stereo partly drawn) [Compound 108, (difluoro(2-(((2S)-1-((2S)-2-(2-(4-fluoro-3-methylphenyl)morpholine-4-carbonyl)pyrrolidin-1-yl)-3,3-dimethyl-1-oxobutan-2-yl)carbamoyl)benzo[b]thiophen-5-yl)methyl)phosphonic acid]
15 | 0.1 to 1 | > 10 | CC(C)(C)[C@H](NC(=O)c1cc2cc(C(F)(F)P(=O)(O)O)ccc2s1)C(=O)N1CCC[C@H]1C(=O)N1CCOC(c2ccccc2F)C1 (stereo partly drawn) [Compound 109, (difluoro(2-(((2S)-1-((2S)-2-(2-(2-fluorophenyl)morpholine-4-carbonyl)pyrrolidin-1-yl)-3,3-dimethyl-1-oxobutan-2-yl)carbamoyl)benzo[b]thiophen-5-yl)methyl)phosphonic acid]
